This test addresses activated ERK2 (Homo sapiens, UniProt P28482). Briefly: ERK2 inhibition assay, spectrophotometric coupled-enzyme assay. The class given is biochemical. As to conditions: activated ERK2 10 nM, 65 μM ATP, 200 μM erktide peptide, 30° C., pH 7.5. The method, then:
In this assay, a fixed concentration of activated ERK2 (10 nM) was incubated with various concentrations of a compound of the present invention in DMSO (2.5%) for 10 min. at 30° C. in 0.1 M HEPES buffer (pH 7.5), containing 10 mM MgCl2, 2.5 mM phosphoenolpyruvate, 200 μM NADH, 150 μg/ml pyruvate kinase, 50 μg/ml lactate dehydrogenase, and 200 μM erktide peptide.

A value given as a limit tells only on which side of the number the result lay.

Chain of activated ERK2 (P28482 whole entry): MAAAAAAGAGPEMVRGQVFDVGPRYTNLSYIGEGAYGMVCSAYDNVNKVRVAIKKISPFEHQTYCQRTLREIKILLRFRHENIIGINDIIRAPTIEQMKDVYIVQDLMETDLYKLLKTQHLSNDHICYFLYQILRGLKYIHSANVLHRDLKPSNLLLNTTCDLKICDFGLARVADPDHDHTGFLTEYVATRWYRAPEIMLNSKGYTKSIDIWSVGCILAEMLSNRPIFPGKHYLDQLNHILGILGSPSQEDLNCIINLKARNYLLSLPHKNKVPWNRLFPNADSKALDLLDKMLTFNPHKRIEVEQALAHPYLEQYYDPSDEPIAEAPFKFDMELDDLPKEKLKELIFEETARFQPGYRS

By Ki is commonly meant the equilibrium dissociation constant of an inhibitor or competing ligand from its target. With `Cc1cnc(Nc2ccc(Cl)cc2Cl)nc1-c1c[nH]c(C(=O)NC(CO)c2ccccc2)c1` (centres unmarked) [Compound I-3], the inhibitory constant (Ki) was < 100 nM. Then `Cc1cnc(Nc2ccc([N+](=O)[O-])cc2Cl)nc1-c1c[nH]c(C(=O)NC(CO)c2ccccc2)c1` (centres unmarked) [Compound I-4], with < 100 nM; and `Cc1cnc(Nc2cccc(Cl)c2Cl)nc1-c1c[nH]c(C(=O)NC(CO)c2ccccc2)c1` (centres unmarked) [Compound I-6], with < 100 nM.

For the molecule `Cc1cnc(Nc2c(Cl)cccc2Cl)nc1-c1c[nH]c(C(=O)NC(CO)c2ccccc2)c1` (centres unmarked) [Compound I-8], the Ki is > 100 nM. With `Cc1cnc(Nc2c(C)cccc2Cl)nc1-c1c[nH]c(C(=O)NC(CO)c2ccccc2)c1` (centres unmarked) [Compound I-9] the figure was > 100 nM; with `Cc1cccc(C(CO)NC(=O)c2cc(-c3nc(Nc4ccccc4Cl)ncc3C)c[nH]2)c1` (centres unmarked) [Compound I-10], < 100 nM; with `Cc1cnc(Nc2ccccc2Cl)nc1-c1c[nH]c(C(=O)NC(CO)c2cccc(C(F)(F)F)c2)c1` (centres unmarked) [Compound I-11], < 100 nM. With `Cc1cnc(Nc2c(F)cccc2Cl)nc1-c1c[nH]c(C(=O)NC(CO)c2ccccc2)c1` (centres unmarked) [Compound I-12] the figure was < 100 nM.

For the origin of these results see patent publication US7501415B2, “Selective inhibitors of ERK protein kinase and uses thereof” (Vertex Pharmaceuticals Incorporated, priority 2004, dated 2009).
